We go through 90 compounds from a melting point compilation (Tetko et al.; mined from patent text by program, amines drawn as free bases though some values may be those of a salt).

`CNc1cc(S(=O)(=O)c2ccccc2)ccn1` yielded a melting point of 142 to 143 °C.
The value for `CCc1ccc2c(c1)C=Cc1sc(C)nc1C2c1cn(C)c(=O)[nH]c1=S` (stereo not given) was 265 °C; that for `COC(=O)C1=C(SC)N(c2ccc(Cl)cc2Cl)CCC1` was 83 to 86 °C.
The value for `Cc1cc2c(c3c1NC(=O)CC3)OC(CO)C2` (stereo not given) was 172 to 173 °C; that for `Nc1ccc(S(=O)(=O)Nc2cccc3c(Cl)c[nH]c23)cn1` was 206 to 207 °C; that for `CC(=O)c1cn(Cc2ccccc2)c(=O)[nH]c1=O` was 196 to 197 °C.
Then `Cc1ccc(NC(=O)c2cc(Cl)ccc2NCC2CCN(C3CCSC3)CC2)nc1` (stereo not given), with 151 to 153 °C; and `COC(=O)Cn1cc2c(c1C)-c1ccc(Cl)cc1C(c1ccccc1Cl)=NC2`, with 174 to 176 °C; and `N#CC1(N2CCN(c3ccc(N4CC(CCC(N)=O)OC4=O)cc3F)CC2)CCOCC1` (stereo not given), with 134 to 137 °C.
Compound `COC(=O)CCCc1cc2nc(C)ccc2n1S(=O)(=O)c1ccccc1` yielded a melting point of 91 to 94 °C.
The value for `CCOC1=NS(=O)(=O)c2cc(I)ccc21` was 185 to 190 °C; that for `COc1ccc(C(C)C(=O)O)cc1[N+](=O)[O-]` (stereo not given) was 89 to 90 °C.
The value for `COC(=O)c1ccc2oc(CCl)c(C)c2c1` was 114 to 115 °C; that for `COc1cc(OC(c2ccccc2)c2ccccc2)ccc1/C=C/c1cc(/C=C/c2ccc3cc[nH]c3c2)[nH]n1` was 114 to 119 °C; that for `Cc1ccc(N=C2NCCN2)c(Cl)c1Cl` was 158 to 162 °C.
The value for `CCCCc1nc2ccc(NC(=O)C3CCCCC3C(=O)O)cc2n1Cc1ccc(-c2ccccc2C(=O)O)cc1` (stereo not given) was 186 to 188 °C; that for `CCN1CCC(NC(=O)c2ccc(NC(C)=O)cc2)N1CC` (stereo not given) was 178 to 180 °C; that for `CCON(c1ccc([N+](=O)[O-])cc1Cl)S(=O)(=O)c1ccc(C)cc1` was 134 to 135 °C.
Consider `COc1ccc(Br)cc1-c1cc(-c2cccc(Br)c2)no1`, for which the melting point came out at 156 °C.
Then `CCC1(c2ccc(=O)[nH]n2)CCCCC1`, with 138 to 140 °C; and `CCOC(=O)c1ccc(-c2nc(COc3ccc(COc4nn(-c5ccccc5)cc4/C=C/P(=O)(OCC)OCC)cc3OC)c(C)o2)s1`, with 114 to 115 °C; and `CCNC(=O)NC1CCCc2ccccc21` (stereo not given), with 178 to 179 °C.
The value for `O=C(CCc1cnn(-c2ccccc2)c1-c1ccccc1)Nc1ccc(C(=O)O)cc1` was 254 to 256 °C; that for `CC(C)(C)OC(=O)[C@@H](N)Cc1ccc(O)c(I)c1` was 158 to 159 °C; that for `CCCc1nc(C=O)c(C(=O)OCC)n1Cc1ccc(-c2ccccc2C(=O)OC(C)(C)C)cc1` was 117 to 119 °C.
As to `COC(=O)C1=CC(C)(N)NC(C2CC2)=N1` (stereo not given), the melting point was in the range of 152 to 153 °C.
In turn, `CC(=O)Nc1ccc(OCCCCl)cc1` had a melting point of 125 to 127 °C.
Then `CCSc1nc2c(C(=O)OCOC)sc(C)c2[nH]1`, with 128 to 130 °C; and `COc1ccc(-n2nnnc2C(F)(F)F)c(OC)c1CBr`, with 89.5 to 90 °C.
`Cc1ccccc1OCCC1CCN(c2cc(Cl)nnc2Cl)CC1` had a melting point of 106 to 108 °C.
Then `COc1cc2c(c(OC)c1)C1CCCCC1C(=O)C2` (stereo not given), with 130 to 131 °C; and `CC(C)CNc1ccc(Cl)cc1C(O)c1ccccc1OCc1ccccc1` (stereo not given), with 79 to 80 °C; and `CCOc1c(NCc2ccc(C#N)c(CC)c2)c(=O)c1=O`, with 239 to 242 °C.
Then `CCOC(C)n1cnc(C(N)=O)n1` (stereo not given), with 163 to 166 °C; and `O=[N+]([O-])c1ccc2c(c1)CN(Cc1ccccc1)CC2`, with 85 to 86 °C; and `CC1=NS(=O)(=O)N(C)C(Cl)=N1`, with 86 to 90 °C.
The value for `Nc1nc(Cl)cc(-c2ccco2)n1` was 133 to 140 °C; that for `Clc1ccc(CC(Cn2cncn2)Cn2cncn2)cc1` was 107 to 108 °C.
`CCCCS(=O)(=O)Nc1ccc(CCCCOCCCCCCNCC(O)c2ccc(O)c(CO)n2)cc1` (stereo not given) displayed a melting point of 55 to 57 °C.
Then `O=C1CC(c2ccccc2Cl)Cc2[nH]nc(-c3ccccc3)c21` (stereo not given), with 218 to 222 °C; and `O=C(O)c1cc(=O)c2cc(OC(F)(F)F)ccc2o1`, with 192 to 194 °C; and `COC(=O)C(NS(=O)(=O)c1ccc(-c2ccc(NC(=O)c3cc4cc(OC)ccc4o3)cc2)cc1)C(C)C` (stereo not given), with 234 to 235 °C.
The compound `O=Cc1c(O)c(Cl)cc(Cl)c1F` had a melting point of 58 to 62 °C.
Then `Cc1ccc(S(=O)(=O)NC(=O)N2C(=O)C(C)N2C(c2ccccc2)c2ccccc2)cc1` (stereo not given), with 155 to 159 °C.
The value for `O=C(O)c1ccc(OCCCn2ccnc2)cc1` was 218 °C; that for `NC(=O)c1ccc(CCCCCCN2CCOCC2)cc1O` was 70 to 73 °C; that for `CON=C(C(=O)OC)c1ccccc1COc1ccc2c(c1)OCC2=O` was 134 to 137 °C.
Regarding `CN(CCC1=C(C#N)C(c2cccc3nonc23)c2c[nH]nc2N1)C(=O)OC(C)(C)C` (stereo not given), the melting point was 240 °C.
With `CCc1nnc(-c2ccc(N)cc2)n1-c1ccc(OC)cc1`, the melting point was determined as 210 °C.
The value for `CCCCOc1ncc(C(C)=O)cc1-c1nn2c(CC)nc(CN3CCOCC3)c2c(=O)[nH]1` was 145 to 149 °C.
The value for `O=C(C1=COc2cc(O)ccc2O1)N1CCN(C(c2ccc(F)cc2)c2ccc(F)cc2)CC1` was 163 °C; that for `COc1ccc(-c2c(Cl)c(CN3CCN(C(C)=O)CC3)nc3sc4c(c23)CCN(Cc2ccccc2)C4)cc1OC` was 183 to 184 °C; that for `COc1cc(CN2C(=O)CN(C)C2=O)cc(OC)c1-c1ccc(C[C@H](NC(=O)c2c(Cl)cccc2Cl)C(=O)O)cc1` was 248 °C.
Take `COC(=O)c1c(Br)c(F)cc2nn(C)cc12`: the melting point was in the range of 146 to 147 °C.
The value for `CNS(=O)(=O)CCc1ccc2[nH]ccc2c1` was 122 to 124 °C; that for `CCCCNC(=O)c1ccc(C(F)(F)F)c(-n2nc(CC)n(Cc3ccc(-c4ccccc4S(=O)(=O)NC(=O)OC(C)(C)C)cc3F)c2=O)c1` was 114 to 116 °C.
The value for `CCOC(=S)c1c(C)nc2sccn12` was 133 to 135 °C.
Then `CCn1cc(C(=O)O)c(=O)c2cc(F)c(N3CCC3CN)nc21` (stereo not given), with 198 to 200 °C; and `N#CCCNC(=O)Nc1cc(N2CC(c3ccccc3)CC2=O)ccn1` (stereo not given), with 260 to 263 °C.
On to `CN(C)CCCC1(O)c2ccccc2COc2ccc(C3=NC(C)(C)CO3)cc21` (stereo not given), for which the melting point was in the range of 166 to 167 °C.
The value for `CCCN1CCN(CCCOc2cc3ncc(C#N)c(Nc4cc(OC)c(Cl)cc4Cl)c3cc2OC)CC1` was 97 to 101 °C.
In the case of `CC(C)(C)OCC(=O)c1cnc(NC(=O)C(C)(C)C)cn1`, the melting point was in the range of 138 to 140 °C.
The value for `CC(c1c[nH]cn1)c1cccc(CO)c1O` (stereo not given) was 135 to 136 °C; that for `CCOC(=O)c1cc2c(cn1)[nH]c1ccc(S(=O)(=O)N(C)C)cc12` was 310 to 311 °C.
Turning to `COc1ccc(C2=NN(C)C(=O)[C@H]3CCCC[C@@H]23)cc1OC` (relative stereo), the melting point lay within 110 to 112 °C.
Then `Brc1ccc2c(c1)C(c1ccccn1)=CCc1nncn1-2`, with 219 °C; and `CN(Cc1ccccc1)c1cc(C#N)ccc1C1NC(=O)NC1=O` (stereo not given), with 95 to 98 °C; and `CCCc1nc2c(C)cc(-c3nc4ccccc4n3C)cc2n1Cc1ccc(-c2ccccc2S(=O)(=O)O)cc1`, with 307 to 310 °C.
The value for `Cc1cc(C)n2nc(C)cc2n1` was 70 to 73 °C; that for `CC(C)C1COC(=O)N1C(=O)CCCCOCc1ccccc1` (stereo not given) was 133 °C.
The value for `NP(N)(=O)NC(=O)CCc1ccccc1` was > 300 °C; that for `CC(=O)Oc1cc(OCc2ccccc2)cc(OC(C)=O)c1` was 129 to 130 °C; that for `O=C1CCC(N2Cc3c(OCc4ccc(OCCN5CCOCC5)cc4)cccc3C2=O)C(=O)N1` (stereo not given) was 203 to 205 °C.
Compound `COc1ccc(CN[C@@H]2CCCC[C@H]2NCc2ccc(OC)cc2)cc1` (relative stereo) registered a melting point of 110 to 112 °C.
Then `O=C(O)c1ccc(CNC(=O)C2Cc3ccccc3N2S(=O)(=O)c2ccc(-c3cccc(C(F)(F)F)c3)cc2)cc1` (stereo not given), with 120 °C; and `COC(=O)C(=C(C)C)N1CC(N2C(=O)c3ccccc3C2=O)C1=O` (stereo not given), with 127 to 128 °C; and `COc1ccc(-c2ccc(C(=O)O)cc2)c2c1OC(C)(C)C2`, with 249 to 252 °C.
Compound `Cc1coc(NCCN2CCC(Nc3nc4ccccc4n3Cc3ccc(F)cc3)CC2)n1` showed a melting point of 178 °C.
In turn, `CC(C)Oc1ccc2c(O)c(C(=O)NCCO)nc(Cl)c2c1` had a melting point of 102 to 104 °C.
The value for `CCOC(=O)c1cc(OCc2ccccc2)ccc1O` was 71.5 to 73 °C; that for `O=C(O)c1ccccc1SSc1ccc([N+](=O)[O-])cc1C(Cl)(Cl)Cl` was 224 °C; that for `CCCN1CCC=C(c2cccc3[nH]ccc23)C1` was 168 °C.
The value for `CC(Br)=C(c1ccc(F)cc1)c1ccc(F)cc1` was 53 to 54 °C; that for `CN1CC(=O)Nc2ncccc2C1=O` was 245 to 247 °C; that for `OCc1c(CO)c(-c2ccc(Cl)cc2)n2c1Cc1ccccc1C2` was 170 to 171 °C.
The value for `Cc1cccc(C2=C(c3ccc(S(C)(=O)=O)cc3)CN(C)C2=O)c1` was 163 to 165 °C; that for `CC(C)(C#N)ON1C(C)(C)CC(OC(=O)c2ccccc2)CC1(C)C` was 128 to 129 °C.
`O=C(c1ccccc1)c1ccc2nc3c(C(=O)O)cccc3nc2c1` returned a melting point of 236 to 237 °C.
In turn, `Cn1c(COc2ccc(C=C3SC(=O)NC3=O)cc2)nc2cccnc21` had a melting point of 279 to 281 °C.
The value for `Cn1cc(-c2cc3cccnc3[nH]2)c2cc(C(=O)NC(C)(C)CO)ccc21` was 161 to 162 °C.

Broadly, the melting point is the temperature of the solid-liquid transition.
